Measured values: ChEMBL document CHEMBL5634078, “Catechol-mimicking transition-state analogues as non-oxidizable inhibitors of tyrosinases” (Eur J Med Chem, 2023)

Columns and labels:
Mushroom tyrosinase [1] = target: T1, Mushroom tyrosinase (Agaricus bisporus, UniProt O42713+Q00024+C7FF04+C7FF05); assay: Inhibition of mushroom Tyrosinase; assay type: protein assay
Mushroom tyrosinase [2] = target: T1, Mushroom tyrosinase; assay: Inhibition of mushroom Tyrosinase by using L-DOPA as substrate by spectrophotometric assay; assay type: protein assay
Tyrosinase [3] = target: T2, Tyrosinase (Homo sapiens, UniProt P14679); assay: Inhibition of human tyrosinase using L-DOPA as substrate by spectrophotometer analysis
T2 sequence (P14679 whole entry): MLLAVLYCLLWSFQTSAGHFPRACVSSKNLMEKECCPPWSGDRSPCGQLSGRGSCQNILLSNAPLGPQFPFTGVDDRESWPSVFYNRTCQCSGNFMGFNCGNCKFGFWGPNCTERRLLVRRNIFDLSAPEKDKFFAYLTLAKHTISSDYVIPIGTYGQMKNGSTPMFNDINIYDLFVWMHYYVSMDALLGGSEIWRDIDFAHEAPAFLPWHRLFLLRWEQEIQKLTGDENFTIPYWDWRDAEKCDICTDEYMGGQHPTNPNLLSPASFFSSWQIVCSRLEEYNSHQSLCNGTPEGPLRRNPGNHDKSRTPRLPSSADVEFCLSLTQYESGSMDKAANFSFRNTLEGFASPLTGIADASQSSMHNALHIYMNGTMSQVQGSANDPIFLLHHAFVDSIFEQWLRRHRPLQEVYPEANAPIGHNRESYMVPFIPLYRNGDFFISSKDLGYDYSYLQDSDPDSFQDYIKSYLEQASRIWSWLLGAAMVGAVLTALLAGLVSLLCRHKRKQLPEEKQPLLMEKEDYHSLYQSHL

Mushroom tyrosinase [4] = target: T1, Mushroom tyrosinase; assay: Binding affinity to mushroom Tyrosinase using L-DOPA as substrate assessed as inhibition constant by Michaelis-Menten analysis; assay type: protein assay
COc1ccc(O)cc1 [5] = assay: (§1) Binding affinity to mushroom tyrosinase assessed as catalytic constant by Michaelis-Menten analysis; assay type: protein assay; conditions: Agaricus bisporus
Oc1ccccc1 [6] = assay: as §1; assay type: protein assay; conditions: Agaricus bisporus
O=C(O)Cc1ccc(O)cc1 [7] = assay: as §1; assay type: protein assay; conditions: Agaricus bisporus
NCCc1ccc(O)cc1 [8] = assay: as §1; assay type: protein assay; conditions: Agaricus bisporus
[9] = test system: N[C@H](Cc1ccc(O)cc1)C(=O)O; assay: as §1; assay type: protein assay; conditions: Agaricus bisporus
NCCc1ccc(O)c(O)c1 [10] = assay: (§2) Binding affinity to mushroom tyrosinase assessed as catalytic constant; assay type: protein assay; conditions: Agaricus bisporus
O=C(O)Cc1ccc(O)c(O)c1 = assay: as §2; assay type: protein assay; conditions: Agaricus bisporus
[11] = test system: O=C(/C=C/c1ccc(O)c(O)c1)O[C@H](Cc1ccc(O)c(O)c1)C(=O)O; assay: as §2; assay type: protein assay; conditions: Agaricus bisporus
[12] = test system: CC(C)NCC(O)c1ccc(O)c(O)c1; assay: as §2; assay type: protein assay; conditions: Agaricus bisporus
[13] = test system: N[C@@H](Cc1ccc(O)cc1)C(=O)O; assay: as §2; assay type: protein assay; conditions: Agaricus bisporus
[14] = test system: O=C(O)/C=C/c1ccc(O)c(O)c1; assay: as §2; assay type: protein assay; conditions: Agaricus bisporus
Oc1ccccc1O [15] = assay: as §2; assay type: protein assay; conditions: Agaricus bisporus
CC(C)(C)c1ccc(O)c(O)c1 [16] = assay: as §2; assay type: protein assay; conditions: Agaricus bisporus
[17] = test system: N[C@@H](Cc1ccc(O)c(O)c1)C(=O)O; assay: as §2; assay type: protein assay; conditions: Agaricus bisporus
[18] = test system: O=c1c(O)c(-c2ccc(O)c(O)c2)oc2cc(O)cc(O)c12; assay: as §2; assay type: protein assay; conditions: Agaricus bisporus
[19] = test system: N[C@H](Cc1ccc(O)c(O)c1)C(=O)O; assay: as §2; assay type: protein assay; conditions: Agaricus bisporus
Cc1ccc(O)c(O)c1 [20] = assay: as §2; assay type: protein assay; conditions: Agaricus bisporus
[21] = test system: OC[C@H]1O[C@@H](Oc2ccc(O)cc2)[C@H](O)[C@@H](O)[C@@H]1O; assay: (§3) Binding affinity to mushroom tyrosinase assessed as catalytic constant using L-DOPA as substrate by Michaelis-Menten analysis; assay type: protein assay; conditions: Agaricus bisporus
[22] = test system: O=C1/C(=C/c2ccc(O)cc2)Oc2cc(O)ccc21; assay: as §3; assay type: protein assay; conditions: Agaricus bisporus
[23] = test system: Oc1ccc(/C=C/c2cc(O)cc(O)c2)cc1; assay: as §3; assay type: protein assay; conditions: Agaricus bisporus
Oc1ccc(OC2CCCCO2)cc1 [24] = assay: as §3; assay type: protein assay; conditions: Agaricus bisporus
NCCc1ccc(O)c(O)c1 [25] = assay: (§4) Binding affinity to mushroom tyrosinase […]; assay type: protein assay; conditions: Agaricus bisporus
[26] = test system: OC[C@H]1O[C@@H](Oc2ccc(O)cc2)[C@H](O)[C@@H](O)[C@@H]1O; assay: as §4; assay type: protein assay; conditions: Agaricus bisporus
COc1ccc(O)cc1 [27] = assay: as §4; assay type: protein assay; conditions: Agaricus bisporus
Oc1ccccc1 [28] = assay: as §4; assay type: protein assay; conditions: Agaricus bisporus
[29] = test system: CC(C)NCC(O)c1ccc(O)c(O)c1; assay: as §4; assay type: protein assay; conditions: Agaricus bisporus
[30] = test system: N[C@@H](Cc1ccc(O)cc1)C(=O)O; assay: as §4; assay type: protein assay; conditions: Agaricus bisporus
Oc1ccccc1O [31] = assay: as §4; assay type: protein assay; conditions: Agaricus bisporus
CC(C)(C)c1ccc(O)c(O)c1 [32] = assay: as §4; assay type: protein assay; conditions: Agaricus bisporus
[33] = test system: N[C@@H](Cc1ccc(O)c(O)c1)C(=O)O; assay: as §4; assay type: protein assay; conditions: Agaricus bisporus
O=C(O)Cc1ccc(O)cc1 [34] = assay: as §4; assay type: protein assay; conditions: Agaricus bisporus
[35] = test system: O=c1c(O)c(-c2ccc(O)c(O)c2)oc2cc(O)cc(O)c12; assay: as §4; assay type: protein assay; conditions: Agaricus bisporus
NCCc1ccc(O)cc1 [36] = assay: as §4; assay type: protein assay; conditions: Agaricus bisporus
Cc1ccc(O)c(O)c1 [37] = assay: as §4; assay type: protein assay; conditions: Agaricus bisporus
Oc1ccc(OC2CCCCO2)cc1 [38] = assay: as §4; assay type: protein assay; conditions: Agaricus bisporus
[39] = test system: N[C@H](Cc1ccc(O)cc1)C(=O)O; assay: as §4; assay type: protein assay; conditions: Agaricus bisporus
[40] = Binding affinity to Mushroom Tyrosinase assessed as inhibition constant
[41] = Biniding affinity to bacterial Tyrosinase assessed as inhibition constant; set-up: species or system Bacteria
[42] = Inhibition of Bacterial Tyrosinase; set-up: species or system Bacteria
Tyrosinase [43] = target: T2, Tyrosinase; assay: Binding affinity to human Tyrosinase assessed as inhibition constant
[44] = Inhibition of human Tyrosine kinase
[45] = Binding affinity to bacterial Tyrosinase assessed as inhibition constant; set-up: species or system Bacteria
Mushroom tyrosinase [46] = target: T1, Mushroom tyrosinase; assay: Inhibition of mushroom Tyrosinase using L-DOPA as substrate assessed as inhibition constant by Michaelis-Menten analysis; assay type: protein assay
Tyrosinase [47] = target: T2, Tyrosinase; assay: Binding affinity to human Tyrosinase using L-DOPA as substrate assessed as inhibition constant by Michaelis-Menten analysis

Chain of Mushroom tyrosinase (Agaricus bisporus) (C7FF05 whole entry, looked up): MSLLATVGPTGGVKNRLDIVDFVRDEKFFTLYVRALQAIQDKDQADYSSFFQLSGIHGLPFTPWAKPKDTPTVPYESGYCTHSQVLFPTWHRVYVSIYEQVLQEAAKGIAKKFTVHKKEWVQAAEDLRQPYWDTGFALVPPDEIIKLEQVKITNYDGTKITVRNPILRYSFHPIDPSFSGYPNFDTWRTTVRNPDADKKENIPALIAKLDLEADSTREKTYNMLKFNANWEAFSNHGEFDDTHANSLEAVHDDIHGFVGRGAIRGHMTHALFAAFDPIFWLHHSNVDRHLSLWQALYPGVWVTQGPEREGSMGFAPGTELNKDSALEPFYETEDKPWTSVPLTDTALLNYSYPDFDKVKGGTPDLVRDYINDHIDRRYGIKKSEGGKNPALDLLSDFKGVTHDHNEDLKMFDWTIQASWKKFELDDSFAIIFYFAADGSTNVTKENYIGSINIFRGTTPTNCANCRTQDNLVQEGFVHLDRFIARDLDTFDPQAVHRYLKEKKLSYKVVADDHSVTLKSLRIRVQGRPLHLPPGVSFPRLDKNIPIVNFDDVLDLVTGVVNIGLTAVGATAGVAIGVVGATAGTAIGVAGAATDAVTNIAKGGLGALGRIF
Chain of Mushroom tyrosinase (Agaricus bisporus) (C7FF04 whole entry, looked up): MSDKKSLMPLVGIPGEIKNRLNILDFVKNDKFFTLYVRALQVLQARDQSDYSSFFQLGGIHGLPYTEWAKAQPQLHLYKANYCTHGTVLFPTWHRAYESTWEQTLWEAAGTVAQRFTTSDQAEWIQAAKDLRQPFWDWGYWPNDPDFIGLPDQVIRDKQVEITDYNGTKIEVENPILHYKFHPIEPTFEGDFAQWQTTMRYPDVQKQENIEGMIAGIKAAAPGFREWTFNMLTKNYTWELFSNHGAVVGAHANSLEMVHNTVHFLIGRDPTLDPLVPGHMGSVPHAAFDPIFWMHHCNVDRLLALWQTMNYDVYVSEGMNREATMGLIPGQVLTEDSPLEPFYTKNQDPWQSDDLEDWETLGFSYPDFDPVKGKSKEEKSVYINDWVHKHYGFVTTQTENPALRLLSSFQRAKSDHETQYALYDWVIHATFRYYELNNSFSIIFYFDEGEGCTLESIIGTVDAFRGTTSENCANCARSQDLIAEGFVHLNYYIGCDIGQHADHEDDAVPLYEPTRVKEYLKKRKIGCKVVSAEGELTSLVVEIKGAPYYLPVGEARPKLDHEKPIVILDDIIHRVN
Chain of Mushroom tyrosinase (Agaricus bisporus) (Q00024 whole entry, looked up): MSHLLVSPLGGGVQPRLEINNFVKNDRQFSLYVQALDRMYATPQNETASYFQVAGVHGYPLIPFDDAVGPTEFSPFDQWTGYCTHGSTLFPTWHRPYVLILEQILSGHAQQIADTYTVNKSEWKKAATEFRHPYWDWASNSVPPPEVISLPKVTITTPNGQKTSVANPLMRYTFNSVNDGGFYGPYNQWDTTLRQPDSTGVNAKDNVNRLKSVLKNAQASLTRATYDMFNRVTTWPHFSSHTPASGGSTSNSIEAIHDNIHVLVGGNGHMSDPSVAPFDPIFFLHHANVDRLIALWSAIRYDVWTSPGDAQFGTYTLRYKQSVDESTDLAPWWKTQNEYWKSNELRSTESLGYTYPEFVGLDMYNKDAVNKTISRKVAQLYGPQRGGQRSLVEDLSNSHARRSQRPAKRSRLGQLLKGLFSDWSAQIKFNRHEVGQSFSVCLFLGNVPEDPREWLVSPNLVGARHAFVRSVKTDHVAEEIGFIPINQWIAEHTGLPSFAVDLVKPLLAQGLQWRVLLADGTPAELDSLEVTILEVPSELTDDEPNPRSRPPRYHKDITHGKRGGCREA
Chain of Mushroom tyrosinase (Agaricus bisporus) (O42713 whole entry, looked up): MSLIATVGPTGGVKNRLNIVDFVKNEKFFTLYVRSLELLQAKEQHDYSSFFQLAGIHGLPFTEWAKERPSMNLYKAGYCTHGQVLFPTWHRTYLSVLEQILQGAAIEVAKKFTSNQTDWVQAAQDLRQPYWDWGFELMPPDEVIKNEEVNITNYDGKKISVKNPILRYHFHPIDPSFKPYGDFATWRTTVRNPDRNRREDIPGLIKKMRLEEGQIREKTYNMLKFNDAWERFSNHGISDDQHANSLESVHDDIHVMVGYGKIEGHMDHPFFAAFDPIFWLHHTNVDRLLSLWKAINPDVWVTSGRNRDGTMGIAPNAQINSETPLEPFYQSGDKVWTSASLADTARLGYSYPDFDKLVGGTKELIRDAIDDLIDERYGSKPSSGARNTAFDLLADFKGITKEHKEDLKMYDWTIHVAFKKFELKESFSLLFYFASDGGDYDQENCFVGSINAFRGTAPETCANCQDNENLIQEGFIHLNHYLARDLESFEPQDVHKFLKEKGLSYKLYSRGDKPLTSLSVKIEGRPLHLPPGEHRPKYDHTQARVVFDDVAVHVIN

Compound: O=C(/C=C/c1ccc2c(c1)OCO2)OCc1cc(=O)c(O)co1
- IC50 (Mushroom tyrosinase [1]): 1.4 µM

Compound: O=c1cc(CSc2nnc(-c3ccc(F)cc3)o2)occ1O
- IC50 (Mushroom tyrosinase [2]): 5.3 µM

Compound: COc1ccccc1/C=C/C=N/Nc1nnc(SCc2cc(=O)c(O)co2)n1N
- IC50 (Mushroom tyrosinase [2]): 7.5 µM

Compound: O=c1cc(CSc2nnc(-c3ccccc3)n2NCc2ccc(O)cc2O)occ1O
- IC50 (Mushroom tyrosinase [2]): 1.4 µM

Compound: CC(C)c1ccccc(=O)c1O [ALPHA-THUJAPLICIN]
- IC50 (Tyrosinase [3]): > 1000 µM
- Ki (Mushroom tyrosinase [4]): 9.5 µM

Compound: COc1ccc(C(=O)OCc2cc(=O)c(O)co2)cc1
- IC50 (Mushroom tyrosinase [1]): 2 µM

Compound: Mushroom tyrosinase (Agaricus bisporus) (from UniProt O42713+Q00024+C7FF04+C7FF05)
- kcat (COc1ccc(O)cc1 [5]): 184 s⁻¹
- kcat (Oc1ccccc1 [6]): 13 s⁻¹
- kcat (O=C(O)Cc1ccc(O)cc1 [7]): 44 s⁻¹
- kcat (NCCc1ccc(O)cc1 [8]): 26 s⁻¹
- kcat [9]: 8.7 s⁻¹
- kcat (NCCc1ccc(O)c(O)c1 [10]): 475 s⁻¹
- kcat (O=C(O)Cc1ccc(O)c(O)c1): 632 s⁻¹
- kcat [11]: 68 s⁻¹
- kcat [12]: 29 s⁻¹
- kcat [13]: 7.9 s⁻¹
- kcat [14]: 403 s⁻¹
- kcat (Oc1ccccc1O [15]): 874 s⁻¹
- kcat (CC(C)(C)c1ccc(O)c(O)c1 [16]): 642 s⁻¹
- kcat [17]: 107 s⁻¹
- kcat [18]: 6.2 s⁻¹
- kcat [19]: 108 s⁻¹
- kcat (Cc1ccc(O)c(O)c1 [20]): 842 s⁻¹
- kcat [21]: 3.8 s⁻¹
- kcat [22]: 2.3 s⁻¹
- kcat [23]: 69 s⁻¹
- kcat (Oc1ccc(OC2CCCCO2)cc1 [24]): 1.95 s⁻¹
- Km (NCCc1ccc(O)c(O)c1 [25]): 720 µM
- Km [26]: 3000 µM
- Km (COc1ccc(O)cc1 [27]): 80 µM
- Km (Oc1ccccc1 [28]): 0.7 µM
- Km [29]: 7100 µM
- Km [30]: 0.21 µM
- Km (Oc1ccccc1O [31]): 0.16 µM
- Km (CC(C)(C)c1ccc(O)c(O)c1 [32]): 2.8 µM
- Km [33]: 800 µM
- Km (O=C(O)Cc1ccc(O)cc1 [34]): 1910 µM
- Km [35]: 0.12 µM
- Km (NCCc1ccc(O)cc1 [36]): 0.51 µM
- Km (Cc1ccc(O)c(O)c1 [37]): 100 µM
- Km (Oc1ccc(OC2CCCCO2)cc1 [38]): 0.033 µM
- Km [39]: 2.5 µM

Compound: CCOC(=O)/C=C/c1cc(=O)c(O)co1
- IC50 (Mushroom tyrosinase [1]): 36 µM

Compound: CC(C)c1cccc(=O)c(O)c1 [HINOKITIOL]
- Ki (Mushroom tyrosinase [4]): 0.09 µM

Compound: NCCn1ccc(=O)c(O)c1
- Ki [40]: 14 µM

Compound: O=C(CCNC(=O)OCc1cc(=O)c(O)co1)OCc1cc(=O)c(O)co1
- IC50 (Mushroom tyrosinase [1]): 7 µM

Compound: CCCCCCCCn1cc(O)c(=O)cc1COC(=O)[C@@H](N)Cc1ccccc1
- IC50 (Mushroom tyrosinase [1]): 4 µM

Compound: O=c1ccc(CO)cn1O
- Ki [41]: 4.1 µM

Compound: CC(C)c1ccc(O)c(=O)cc1 [GAMMA-THUJAPLICIN]
- Ki (Mushroom tyrosinase [4]): 0.07 µM

Compound: O=C(N[C@@H](Cc1ccccc1)C(=O)OCc1cc(=O)c(O)c[nH]1)OCc1ccccc1
- IC50 (Mushroom tyrosinase [1]): 9 µM

Compound: NC(=S)N/N=C/c1cc(=O)c(O)co1
- IC50 [42]: 1.6 µM
- Ki (Tyrosinase [43]): 260 µM
- IC50 (Mushroom tyrosinase [1]): 10 µM

Compound: O=c1cc(CO)occ1O [KOJIC ACID]
- IC50 [44]: 31 µM

Compound: O=c1cc(CSCCCCSCc2cc(=O)c(O)co2)occ1O
- IC50 (Mushroom tyrosinase [1]): 3 µM

Compound: CCn1ccc(=O)c(O)c1
- Ki [40]: 4 µM

Compound: O=c1cc(CSc2nc3ccccc3s2)occ1O
- IC50 (Mushroom tyrosinase [2]): > 3 µM

Compound: CCCCCCCCn1cc(O)c(=O)cc1/C=N/OCC
- IC50 (Mushroom tyrosinase [1]): 8 µM

Compound: N[C@@H](Cn1ccc(=O)c(O)c1)C(=O)O [L-MIMOSINE]
- Ki [45]: 54 µM
- Ki [40]: 8 µM

Compound: O=C1/C(=C/c2ccc(=O)n(O)c2)Oc2cc(O)ccc21
- Ki (Mushroom tyrosinase [4]): 0.35 µM
- IC50 (Mushroom tyrosinase [46]): 1.5 µM

Compound: O=c1cc(CSc2nc3ccccc3c(=O)n2CCc2ccccn2)occ1O
- IC50 (Mushroom tyrosinase [2]): 0.46 µM

Compound: O=c1cccccc1O [TROPOLONE]
- Ki (Mushroom tyrosinase [4]): 8 µM

Compound: Cc1c(O)c(=O)ccn1C [DEFERIPRONE]
- IC50 (Mushroom tyrosinase [1]): 30 µM

Compound: Oc1cccnc1O
- Ki (Mushroom tyrosinase [4]): 22 µM

Compound: O=C1/C(=C/c2ccc(=O)n(O)c2)Oc2cccc(O)c21
- Ki (Mushroom tyrosinase [4]): 1.02 µM

Compound: Nc1cc2ccc(O)cc2oc1=O
- IC50 (Mushroom tyrosinase [46]): 53 µM

Compound: O=C1/C(=C/c2ccc(=O)n(O)c2)Oc2cc(O)cc(O)c21
- Ki (Mushroom tyrosinase [4]): 1.2 µM

Compound: CN(C)c1ccc(-c2nnc(SCc3cc(=O)c(O)co3)nc2-c2ccc(N(C)C)cc2)cc1
- IC50 (Mushroom tyrosinase [2]): 0.34 µM

Compound: N[C@@H](Cc1ccc(=O)n(O)c1)C(=O)O
- Ki [41]: 39 µM

Compound: CCCCCCCCn1cc(O)c(=O)cc1C=O
- IC50 (Mushroom tyrosinase [1]): 7.8 µM

Compound: CC(C)[C@@H](NC(=O)[C@@H](N)Cn1ccc(=O)c(O)c1)C(=O)O
- IC50 (Mushroom tyrosinase [1]): 10.3 µM

Compound: O=c1oc2ccc(O)cc2cc1O
- IC50 (Mushroom tyrosinase [46]): 10 µM

Compound: CCCCCCn1cc(O)c(=O)cc1/C=C/c1cc(O)cc(O)c1
- IC50 (Mushroom tyrosinase [1]): 16 µM

Compound: O=Cc1ccc(OCc2cc(=O)c(O)co2)cc1F
- IC50 (Mushroom tyrosinase [1]): 5.3 µM

Compound: O=c1cc(CSC2CCCCC2)occ1O
- IC50 (Mushroom tyrosinase [1]): 0.087 µM

Compound: NC(=S)N/N=C\c1ccc(=O)n(O)c1
- Ki [41]: 2 µM
- Ki (Tyrosinase [47]): 47 µM
- Ki (Mushroom tyrosinase [4]): 0.56 µM
- IC50 (Mushroom tyrosinase [46]): 0.56 µM

Compound: On1ccccc1=S
- IC50 (Mushroom tyrosinase [46]): 6.1 µM

Compound: Cc1c(C)c2c(c(C)c1O)CCC(C)(C(=O)OCc1cc(=O)c(O)co1)O2 (centres undefined)
- IC50 (Mushroom tyrosinase [1]): 5.4 µM
